In publication PMC12274840 (The Journal of Biological Chemistry, 2025):
Where “and” joins values, the source holds several entries; their conditions need not be identical. Equal entries are not always repeated. Where two headings read alike, the source gives them in different places.

What was measured:
[1] = tested on: E. coli KA797 cells carrying pUK21 with TEM-1 Y105R; type: cell-based, Escherichia coli; settings: in combination with 100 μg/ml carbenicillin
[2] = tested on: E. coli KA797 cells carrying pUK21 with BlaC WT (Tat); experiment: microbe, parasite or virus in culture; type: cell-based; settings: in combination with 100 μg/ml carbenicillin
[3] = tested on: E. coli KA797 cells carrying pUK21 with TEM-1 WT (Sec); experiment: microbe, parasite or virus in culture; type: cell-based; settings: in combination with 100 μg/ml carbenicillin
[4] = tested on: E. coli KA797 cells carrying pUK21 with TEM-1 Y105G; type: cell-based, Escherichia coli; settings: in combination with 100 μg/ml carbenicillin
[5] = tested on: E. coli KA797 cells carrying CTX-M-14 position 105 library; type: cell-based
[6] = tested on: E. coli KA797 cells carrying pUK21 with BlaC I105G; type: cell-based, Escherichia coli; settings: in combination with 100 μg/ml carbenicillin
TEM-1 WT = TEM-1 WT (Escherichia coli, UniProt P62593); type: biochemical; set-up: 24 to 286 of TEM-1 (P62593); His tag with TEV cleavage site (N); made in house; host or cells: E. coli BL21 (DE3) pLysS; settings: clavulanic acid, TEM-1 WT
BlaC WT = biological target: T1, BlaC WT (Mycobacterium tuberculosis, UniProt P9WKD3); type: biochemical
T1 construct: correspond to residue numbers 41-307 of BlaC (Uniprot entry P9WKD3-1); His tag with TEV cleavage site (N); made in house; host or cells: E. coli BL21 (DE3) pLysS
T1 sequence (P9WKD3 41-307): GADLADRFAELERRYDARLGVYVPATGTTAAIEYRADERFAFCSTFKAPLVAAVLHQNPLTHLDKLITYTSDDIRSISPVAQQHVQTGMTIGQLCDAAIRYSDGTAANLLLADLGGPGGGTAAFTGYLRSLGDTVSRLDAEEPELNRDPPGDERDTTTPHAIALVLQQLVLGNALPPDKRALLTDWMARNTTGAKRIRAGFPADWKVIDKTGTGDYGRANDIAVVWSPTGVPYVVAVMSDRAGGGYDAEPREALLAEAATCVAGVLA

[7] = tested on: E. coli KA797 cells carrying pUK21 with CTX-M-14 WT (Tat); experiment: microbe, parasite or virus in culture; type: cell-based; settings: in combination with 100 μg/ml carbenicillin
[8] = tested on: E. coli KA797 cells carrying pUK21 with BlaC I105R; type: cell-based, Escherichia coli; settings: in combination with 100 μg/ml carbenicillin
TEM-1 Y105G = TEM-1 Y105G (Escherichia coli, UniProt P62593, Y103G); experiment: In vitro inhibition of nitrocefin hydrolysis and simulation of inhibition curves, TEM-1 Y105G; type: biochemical; settings: clavulanic acid, simulation Eq 2/8
[9] = tested on: E. coli KA797 cells carrying pUK21 with NmcA (pelB/Sec); experiment: microbe, parasite or virus in culture; type: cell-based; settings: in combination with 25 μg/ml carbenicillin
[10] = tested on: E. coli KA797 cells carrying BlaC position 105 library; type: cell-based, Escherichia coli; settings: for Fi AVG (average fitness): average of replicates
[11] = tested on: E. coli KA797 cells carrying pUK21 with KPC-2 (Tat); experiment: microbe, parasite or virus in culture; type: cell-based; settings: in combination with 100 μg/ml carbenicillin
[12] = tested on: E. coli KA797 cells carrying pUK21 with CTX-M-14 Y105G; type: cell-based, Escherichia coli; settings: in combination with 100 μg/ml carbenicillin
[13] = tested on: E. coli KA797 cells carrying pUK21 with CTX-M-14 Y105R; type: cell-based, Escherichia coli; settings: in combination with 100 μg/ml carbenicillin
[14] = tested on: CC1(C)S[C@@H]2[C@H](NC(=O)C(C(=O)O)c3ccccc3)C(=O)N2[C@H]1C(=O)O; experiment: purified protein, by the assay type; settings: pH 6.4; 25.0 °C
[15] = tested on: CC1(C)S[C@@H]2[C@H](NC(=O)[C@H](N)c3ccccc3)C(=O)N2[C@H]1C(=O)O; experiment: purified protein, by the assay type; settings: pH 6.4; 25.0 °C
[16] = tested on: O=C(Cc1cccs1)N[C@@H]1C(=O)N2C(C(=O)O)=C(/C=C/c3ccc([N+](=O)[O-])cc3[N+](=O)[O-])CS[C@H]12; experiment: purified protein, by the assay type; settings: pH 6.4; 25.0 °C
[17] = tested on: CC1(C)S[C@@H]2[C@H](NC(=O)C(C(=O)O)c3ccccc3)C(=O)N2[C@H]1C(=O)O; experiment: purified protein, by the assay type; settings: pH 6.4; 25.0 °C; remark: listed apart in the source

O=C(O)[C@H]1/C(=C/CO)O[C@@H]2CC(=O)N21 [clavulanic acid]
MIC of inhibitor [1]: 2 µg/mL
MIC of inhibitor [2]: 0.5 µg/mL
MIC of inhibitor [3]: 2 µg/mL
MIC of inhibitor [4]: 32 µg/mL
Significance of average fitness ([5]; CTX-M-14 AA 105 Arg): -
Significance of average fitness ([5]; CTX-M-14 AA 105 Gly): +
Significance of average fitness ([5]; CTX-M-14 AA 105 Trp): +
WT abs Fi 1 (absolute fitness of wild type, Replicate 1) ([5]; CTX-M-14 WT (Tyr 105)): -0.544
WT abs Fi 2 (absolute fitness of wild type, Replicate 2) ([5]; CTX-M-14 WT (Tyr 105)): -0.635
MIC of inhibitor [6]: 1 µg/mL
k2 (TEM-1 WT; simulation Eq 2/8): 8 10^−2 s^−1
k3 (TEM-1 WT; simulation Eq 2/8): 1.8 10^−3 s^−1
k1 (TEM-1 WT; simulation Eq 8): 900000 M⁻¹ s⁻¹
k1 (BlaC WT): 1e+06 M⁻¹ s⁻¹
k2 (BlaC WT): 4.5 and 4.5 10^−2 s^−1
k3 (BlaC WT): 1.8
MIC of inhibitor [7]: 1 µg/mL
MIC of inhibitor [8]: 4 µg/mL
k2 (TEM-1 Y105G): 9.6 10^−2 s^−1
k3 (TEM-1 Y105G): 3.1 10^−3 s^−1
MIC of inhibitor [9]: 2 µg/mL
Significance of average fitness ([10]; AA 105 Ala (BlaC I105A)): +
Fi AVG (average fitness) ([10]; AA 105 Ala (BlaC I105A), relative to WT Ile): 0.441
Significance of average fitness ([10]; AA 105 Arg (BlaC I105R)): +
Fi AVG (average fitness) ([10]; AA 105 Arg (BlaC I105R), relative to WT Ile): 0.649
Fi AVG (average fitness) ([10]; AA 105 Asn (BlaC I105N), relative to WT Ile): -0.00565
Fi AVG (average fitness) ([10]; AA 105 Asp (BlaC I105D), relative to WT Ile): -0.195
Fi AVG (average fitness) ([10]; AA 105 Cys (BlaC I105C), relative to WT Ile): 0.048
Fi AVG (average fitness) ([10]; AA 105 Gln (BlaC I105Q), relative to WT Ile): -0.027
Fi AVG (average fitness) ([10]; AA 105 Glu (BlaC I105E), relative to WT Ile): -0.066
Significance of average fitness ([10]; AA 105 Gly (BlaC I105G)): +
Fi AVG (average fitness) ([10]; AA 105 Gly (BlaC I105G), relative to WT Ile): 0.325
Fi AVG (average fitness) ([10]; AA 105 His (BlaC I105H), relative to WT Ile): 0.091
Fi AVG (average fitness) ([10]; AA 105 Ile (BlaC WT, reference)): 0.000
Fi AVG (average fitness) ([10]; AA 105 Leu (BlaC I105L), relative to WT Ile): 0.152
Fi AVG (average fitness) ([10]; AA 105 Lys (BlaC I105K), relative to WT Ile): 0.212
Fi AVG (average fitness) ([10]; AA 105 Met (BlaC I105M), relative to WT Ile): 0.159
Significance of average fitness ([10]; AA 105 Phe (BlaC I105F)): +
Fi AVG (average fitness) ([10]; AA 105 Phe (BlaC I105F), relative to WT Ile): 0.271
Fi AVG (average fitness) ([10]; AA 105 Pro (BlaC I105P), relative to WT Ile): 0.200
Significance of average fitness ([10]; AA 105 Ser (BlaC I105S)): +
Fi AVG (average fitness) ([10]; AA 105 Ser (BlaC I105S), relative to WT Ile): 0.440
Significance of average fitness ([10]; AA 105 Thr (BlaC I105T)): +
Fi AVG (average fitness) ([10]; AA 105 Thr (BlaC I105T), relative to WT Ile): 0.421
Fi AVG (average fitness) ([10]; AA 105 Trp (BlaC I105W), relative to WT Ile): 0.208
Significance of average fitness ([10]; AA 105 Tyr (BlaC I105Y)): +
Fi AVG (average fitness) ([10]; AA 105 Tyr (BlaC I105Y), relative to WT Ile): 0.298
Fi AVG (average fitness) ([10]; AA 105 Val (BlaC I105V), relative to WT Ile): 0.071
WT abs Fi 1 ([10]; absolute fitness of BlaC WT (Ile 105), replicate 1): -0.077
WT abs Fi 2 ([10]; absolute fitness of BlaC WT (Ile 105), replicate 2): 0.311
MIC of inhibitor [11]: 1 µg/mL
MIC of inhibitor [12]: 1 µg/mL
MIC of inhibitor [13]: 1 µg/mL

(Escherichia coli)
Km [14]: 20 ± 2 µM
kcat [14]: 31 ± 2 s⁻¹
kcat/Km [14]: 1.55e+06 ± 180000 M⁻¹ s⁻¹
Km [15]: 76 ± 2 µM
kcat [15]: 103 ± 1 s⁻¹
kcat/Km [15]: 1.36e+06 ± 80000 M⁻¹ s⁻¹
Km [16]: 79 ± 1 µM
kcat [16]: 576 ± 5 s⁻¹
kcat/Km [16]: 7.31e+06 ± 80000 M⁻¹ s⁻¹
Km [17]: 10.0 ± 0.7 µM
kcat [17]: 92 ± 2 s⁻¹
kcat/Km [17]: 9.15e+06 ± 660000 M⁻¹ s⁻¹
